This is an account of results in patent US12491271B2, “Positron emission tomography radiotracer for diseases associated with translocator protein overexpression, translocator protein-targeting ligand for fluorescence imaging-guided surgery and photodynamic therapy, and production methods therefor” (Seoul National University R&DB Foundation, priority 2018, dated 2025).

The structures appear in SMILES notation.

One data set deals with TSPO (Homo sapiens, UniProt P30536). The conditions noted are these: compared with earlier tracer [11C]PK11195, background art; cited from earlier work.
Chain of TSPO (P30536 whole entry): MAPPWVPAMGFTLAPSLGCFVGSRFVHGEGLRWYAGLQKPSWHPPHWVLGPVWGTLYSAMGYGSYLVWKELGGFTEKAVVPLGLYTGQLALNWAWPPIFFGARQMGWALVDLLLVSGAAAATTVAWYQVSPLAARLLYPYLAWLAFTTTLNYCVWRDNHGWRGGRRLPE
Data set [1] can be described thus: Measurement of lipophilicity (n-octanol / sodium phosphate buffer partition). The conditions noted are these: n-octanol / sodium phosphate buffer 0.15 M, pH 7.4; measured five times; read-out: lipophilicity (ratio of counts per minute from n-octanol versus sodium phosphate buffer) (converted). The data set is classed as physicochemical. Here is the method: For the measurement of lipophilicity, [^18F]BS224 dispersed in 5% ethanol/saline was added to and mixed with n-octanol (5 mL) and sodium phosphate buffer (0.15 M, pH 7.4, 5.0 mL), and then lipophilicity was measured five times. Samples of each phase were counted for radioactivity, and the lipophilicity was expressed as the ratio of the counts per minute from n-octanol versus that of the sodium phosphate buffer. The lipophilicity of [^18F]BS224 was 2.78±0.4.

A short description of data set [2]: In vitro stability in human serum. The conditions noted are these: human serum mixed with 1% ethanol/water, 37° C., for up to 120 minutes. The data set is classed as in vitro ADME. The protocol:
In an experiment on the in vitro stability of the fluorine-18-labeled PET radiotracer ([^18F]BS224) for targeting translocator protein overexpression, 0.4 mL of human serum was mixed with 0.4 mL of 1% ethanol/water containing the fluorine-18-labeled radiotracer ([^18F]BS224), and then the solution was incubated at 37° C. for 0, 10, 30, 60 and 120 minutes and then analyzed by thin film chromatography.

Regarding `COc1ccc(OC)c(CN(C(C)=O)c2cc(F)ccc2Oc2ccccc2)c1` [[^11C]DAA1106], on TSPO, the higher uptake is given as 4 fold. Consider `CCCN(CCC)C(=O)Cc1c(-c2ccc([18F])cc2)nc2c(Cl)cc(Cl)cn12` [[^18F]BS224, 2-(6,8-dichloro-2-(4-[^18F]fluorophenyl)imidazo[1,2-a]pyridin-3-yl)-N, N-dipropylacetamide], for which the logD in data set [1] is 0.444. Also, in data set [2], the “stability of radiotracer in human serum (thin film chromatography)” value is “at least 98.7%”.
